The nature of data set [1]: Crossover trial in pre- or Stage I hypertension: serum and 24-hour urinary K and Mg. The class given is in vivo, human. As to conditions: 4-week phases, 20 meq K bid; vs placebo phase, p<0.01. The text has this:
In the inventors' published study (Vongpatanasin, 2016), 30 patients with pre- (6 subjects) or Stage I (24 subjects) hypertension underwent a crossover trial, whereby they took KMgCit powder (20 meq K, 10 meq Mg and 37 meq citrate twice daily), KCit powder (20 meq K and 20 meq citrate twice daily), KCl powder (20 meq K and 20 meq chloride twice daily), or placebo (microcrystalline cellulose) for four weeks each. Among hypertensive subjects, 17 of 24 received antihypertensive treatment before study participation. All treated subjects received single-drug regimen before participation in the study (6 were on β blockers, 11 on angiotensin receptor blockers, or angiotensin-converting enzyme inhibitors, or calcium channel blockers), which was continued at the same dose throughout the study. None of the subjects had low serum Mg<1.8 mg/dl or serum K<3.5 meq/l or were on diuretic therapy.
Serum K and 24-hour urinary K excretion were increased during KCl, KCit, and KMgCit phases compared with placebo phase (p <0.01 vs placebo). Serum Mg was increased during KMgCit phase compared with placebo and KCl phases (both p<0.01); 24-hour urinary Mg excretion was increased during KMgCit phase compared with placebo and KCit (both p<0.01). 24-hour urinary Mg excretion was higher during KMgCit compared with KCl (p=0.017).

The subject of a further data set is serum triglyceride. As to the kind of experiment: Serum triglyceride in healthy adults on HCTZ with KMgCit or KCl. The class given is in vivo, human. The conditions noted are these: from 1 month to 5 months of treatment; with HCTZ 50 mg/day; 40 meq K/day; p=0.09 between groups. How it is done:
In the inventors' prior study (Odvina, & Pak, 2006), previously unpublished data on serum triglyceride were extracted. Eight healthy adult subjects took HCTZ 50 mg/day with KMgCit containing 40 meq K and 20 meq Mg/day for 6 months. Ten subjects received HCTZ 50 mg/day with KC1 40 meq K/day. Serum triglyceride declined by −32±41 mg/dL from 1 month to 5 months of treatment in the KMgCit group; It was underaltered from 1 month to 5 months of KCl treatment (0±31 mg/dL). The difference of the change in serum triglyceride between KMgCit and KCl groups was marginally significant (p=0.09). No baseline or 6 month data were available.

In a further data set the test system is serum FGF23. Description: Crossover randomized trial in pre- or Stage I hypertension: serum FGF23. The format is in vivo, human. As to conditions: 30 patients; after 4 weeks of treatment; 20 meq K twice daily; p=0.05. How it is done:
FIG. 4 illustrates effect of KMgCit on serum FGF23.
In the inventors' study, 30 patients with pre- or Stage I hypertension participated in a crossover randomized trial, whereby they took KMgCit powder (20 meq K, 10 meq Mg and 37 meq citrate twice daily) or KCl powder (20 meq K and 20 meq chloride twice daily) for four weeks each. After 4 weeks of treatment, serum samples were analyzed fro FGF23.

Data set [2] concerns RAA-SNS, serum aldosterone, fasting glucose, HOMA-IR. As to conditions: cited from earlier work.

In the case of `O=C([O-])CC(O)(CC(=O)[O-])C(=O)[O-].[K+].[K+].[K+]` [KCit powder, potassium citrate], in data set [1], the “24-hour urinary K excretion” value is on record as “increased” and the “Serum K” value is “increased”.
In the case of `[Cl-].[K+]` [KCl powder, potassium chloride], in data set [1], the “24-hour urinary K excretion” value is recorded as “increased” and the “Serum K” value is “increased”. The “Change in serum triglyceride” value with serum triglyceride was found to be 0 ± 31 mg/dL. In the data set with serum FGF23, the “Serum FGF23” value is 53.1±22.2 Rel U/ml. Also, in data set [2] (KCl supplementation), the “CTD-induced activation of RAA-SNS” value is “unaffected”. For the same compound, the Serum aldosterone result in data set [2] (TZ-treated patients with hypertension, KCl supplementation) is “did not reduce”. The “CTD-induced fasting hyperglycemia and increased HOMA-IR” value in data set [2] (correction of hypokalemia by KCl) is given as “did not reverse”.
